In the supplement of paper PMC10307832:

Key:
Assay in all cases: relative viability (nuclei count vs DMSO), 5 days (fraction); higher = more cells survive
Vemurafenib + Foretinib = compound: CCCS(=O)(=O)Nc1ccc(F)c(C(=O)c2c[nH]c3ncc(-c4ccc(Cl)cc4)cc23)c1F [Vemurafenib] + COc1cc2c(Oc3ccc(NC(=O)C4(C(=O)Nc5ccc(F)cc5)CC4)cc3F)ccnc2cc1OCCCN1CCOCC1 [Foretinib] (partner 0.25 µM)
Summary of the method: (§1)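 Relative viability equals treated-well nuclei counts divided by vehicle-well nuclei counts. Counts came from 4× images of lung cancer cell lines grown in 1536-well plates for 5 days after pin-tool dosing on the day after seeding. Dosing used one drug alone or a fixed anchor-drug dose plus five library-drug doses (not always all listed) in √10 steps, and values are medians of duplicate plates.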

OSI-027 + Luminespib = compound: COc1cccc2cc(-c3nc([C@H]4CC[C@H](C(=O)O)CC4)n4ncnc(N)c34)[nH]c12 [OSI-027] + CCNC(=O)c1noc(-c2cc(C(C)C)c(O)cc2O)c1-c1ccc(CN2CCOCC2)cc1 [Luminespib] (partner 0.01 µM)
Summary of the method: as §1

OSI-027 + Trametinib = compound: COc1cccc2cc(-c3nc([C@H]4CC[C@H](C(=O)O)CC4)n4ncnc(N)c34)[nH]c12 [OSI-027] + CC(=O)Nc1cccc(-n2c(=O)n(C3CC3)c(=O)c3c(Nc4ccc(I)cc4F)n(C)c(=O)c(C)c32)c1 [Trametinib] (partner 0.02 µM)
Summary of the method: as §1

OSI-027 + AZD7762 = compound: COc1cccc2cc(-c3nc([C@H]4CC[C@H](C(=O)O)CC4)n4ncnc(N)c34)[nH]c12 [OSI-027] + NC(=O)Nc1cc(-c2cccc(F)c2)sc1C(=O)N[C@H]1CCCNC1 [AZD7762] (partner 0.2 µM)
Summary of the method: as §1

Row | Cell Line | relative viability (Vemurafenib + Foretinib; first compound 0.03162 µM) | relative viability (Vemurafenib + Foretinib; first compound 0.1 µM) | relative viability (Vemurafenib + Foretinib; first compound 0.3162 µM) | relative viability (Vemurafenib + Foretinib; first compound 1 µM) | relative viability (OSI-027 + Luminespib; first compound 0.01 µM) | relative viability (OSI-027 + Luminespib; first compound 0.03162 µM) | relative viability (OSI-027 + Luminespib; first compound 0.1 µM) | relative viability (OSI-027 + Luminespib; first compound 0.3162 µM) | relative viability (OSI-027 + Luminespib; first compound 1 µM) | relative viability (OSI-027 + Trametinib; first compound 0.01 µM) | relative viability (OSI-027 + Trametinib; first compound 0.03162 µM) | relative viability (OSI-027 + Trametinib; first compound 0.1 µM) | relative viability (OSI-027 + Trametinib; first compound 0.3162 µM) | relative viability (OSI-027 + Trametinib; first compound 1 µM) | relative viability (OSI-027 + AZD7762; first compound 0.01 µM) | relative viability (OSI-027 + AZD7762; first compound 0.03162 µM) | relative viability (OSI-027 + AZD7762; first compound 0.1 µM) | relative viability (OSI-027 + AZD7762; first compound 0.3162 µM) | relative viability (OSI-027 + AZD7762; first compound 1 µM)
1 | EBC-1 | 0.108 | 0.0915 | 0.104 | 0.11 | – | – | – | – | – | – | – | – | – | – | – | – | – | – | –
2 | SK-LU-1 | 0.706 | 0.709 | 0.647 | 0.705 | 0.188 | 0.198 | 0.173 | 0.181 | 0.152 | 0.458 | 0.491 | 0.457 | 0.334 | 0.327 | – | – | – | – | –
3 | NCI-H520 | 0.702 | 0.763 | 0.897 | 0.626 | 0.258 | 0.37 | 0.211 | 0.168 | 0.202 | 0.644 | 0.606 | 0.563 | 0.379 | 0.188 | – | – | – | – | –
4 | NCI-H1563 | 0.859 | 0.976 | 0.93 | 0.935 | 0.479 | 0.479 | 0.455 | 0.517 | 0.481 | – | – | – | – | – | – | – | – | – | –
5 | NCI-H522 | – | – | – | – | 1.2 | 1.25 | 1.19 | 0.698 | 0.58 | 0.691 | 0.709 | 0.725 | 0.632 | 0.463 | 0.807 | 0.89 | 0.68 | 0.672 | 0.612
6 | NCI-H661 | 1.06 | 0.956 | 1.08 | 0.965 | 0.894 | 0.977 | 0.846 | 0.917 | 0.409 | 0.545 | 0.479 | 0.468 | 0.432 | 0.307 | – | – | – | – | –
7 | HCC-44 | – | – | – | – | 1.33 | 0.89 | 0.903 | 0.759 | 0.512 | 1.04 | 1.07 | 1.05 | 0.942 | 0.795 | 0.984 | 1.03 | 1.03 | 1.06 | 1.1
8 | NCI-H1623 | 0.896 | – | 1.03 | 0.768 | 0.511 | 0.423 | 0.322 | 0.323 | 0.202 | – | – | – | – | – | – | – | – | – | –
9 | NCI-H1792 | – | – | – | – | 0.737 | 0.268 | 0.37 | 0.422 | 0.18 | 0.528 | 0.303 | 0.412 | 0.408 | 0.219 | 0.673 | 0.704 | 0.682 | 0.668 | 0.192
10 | COR-L 105 | 1.04 | – | – | 0.978 | 0.58 | 0.707 | 0.862 | 0.526 | 0.472 | 0.406 | 0.396 | 0.394 | 0.376 | 0.459 | – | – | – | – | –
11 | COR-L23 | 0.864 | 0.92 | 0.854 | 0.957 | 0.851 | 0.671 | 0.772 | 0.499 | 0.289 | 0.571 | 0.639 | 0.525 | 0.485 | 0.254 | – | – | – | – | –
12 | NCI-H2023 | 0.881 | 0.811 | 1.09 | 0.742 | 0.812 | 0.59 | 0.646 | 0.709 | 0.27 | 0.645 | 0.506 | 0.435 | 0.388 | 0.272 | – | – | – | – | –
13 | NCI-H2228 | 0.845 | 0.931 | 0.828 | 0.869 | 0.165 | 0.162 | 0.0954 | 0.122 | 0.111 | 0.409 | 0.499 | 0.507 | 0.326 | 0.284 | – | – | – | – | –
